Assay results published in patent US20060148744A1, “Use of cis-epoxyeicosantrienoic acids and inhibitors of soluble epoxide hydrolase to reduce damage from stroke” (priority 2004, published 2006).

How the values were obtained:
Metabolic stability = assay type: in vitro ADME; details: result in words
sEH = target: T1, sEH (Homo sapiens, UniProt P34913); assay: Inhibition of sEH; assay type: biochemical; details: result in words
T1 sequence (P34913 1-555): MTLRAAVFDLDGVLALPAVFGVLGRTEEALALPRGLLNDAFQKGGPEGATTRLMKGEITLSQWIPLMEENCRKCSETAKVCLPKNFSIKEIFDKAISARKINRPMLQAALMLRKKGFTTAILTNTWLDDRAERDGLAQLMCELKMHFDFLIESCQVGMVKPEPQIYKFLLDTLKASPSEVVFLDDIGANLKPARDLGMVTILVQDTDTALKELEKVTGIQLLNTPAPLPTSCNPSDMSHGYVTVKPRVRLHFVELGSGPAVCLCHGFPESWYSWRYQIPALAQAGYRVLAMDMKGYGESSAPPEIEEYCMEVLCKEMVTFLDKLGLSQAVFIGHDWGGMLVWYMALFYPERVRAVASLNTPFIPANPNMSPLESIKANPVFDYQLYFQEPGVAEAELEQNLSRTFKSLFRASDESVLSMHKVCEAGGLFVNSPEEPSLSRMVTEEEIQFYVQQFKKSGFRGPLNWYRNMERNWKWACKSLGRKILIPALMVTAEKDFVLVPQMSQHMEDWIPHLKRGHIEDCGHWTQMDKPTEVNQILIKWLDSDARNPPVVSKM
Text: Any of a number of standard assays for determining epoxide hydrolase activity can be used to determine inhibition of sEH. For example, suitable assays are described in Gill, et al., Anal Biochem 131, 273-282 (1983); and Borhan, et al., Analytical Biochemistry 231, 188-200 (1995)). Suitable in vitro assays are described in Zeldin et al., J Biol. Chem. 268:6402-6407 (1993). Suitable in vivo assays are described in Zeldin et al., Arch Biochem Biophys 330:87-96 (1996). […]
The enzyme also can be detected based on the binding of specific ligands to the catalytic site which either immobilize the enzyme or label it with a probe such as dansyl, fluoracein, luciferase, green fluorescent protein or other reagent. […] The enzyme also can be detected based on the generation of fluorescent products following the hydrolysis of the epoxide. […]

[1] = Systolic blood pressure in treated SPSHR; assay type: in vivo, rat; details: SPSHR treated with AUDA
Text: This difference in infarct size occurred independently of changes in systolic blood pressure (193±2 vs. 197±6 mm Hg, AUDA vs. vehicle).

[2] = tested on: stroke prone spontaneously hypertensive rats; assay: Cerebral ischemia by middle cerebral artery occlusion (intralumenal suture), infarct size by TTC staining; assay type: in vivo, rat; details: SPSHR, six weeks oral treatment, six hours post MCA occlusion, n=6, p<0.01 vs. vehicle
Procedure: After six weeks of treatment, cerebral ischemia was induced by middle cerebral artery occlusion using the intralumenal suture occlusion technique. Rats were anesthetized with sodium pentobarbital (50 mg/kg IP) and body temperature was maintained at 37° C. using a microprocessor-controlled heating pad and a rectal temperature probe. The skin over the skull was retracted and the bone was thinned using a low speed drill. A laser Doppler flow probe (Perimed) was glued to the skull 2 mm posterior and 6 mm lateral to the bregma to allow for confirmation of middle cerebral artery (“MCA”) occlusion. The MCA was then occluded using the thread occlusion model as described by Zea Longa et al. “Reversible middle cerebral artery occlusion without craniotomy in rats”, Stroke 20:84-91 (1989). The common carotid artery was exposed by a midline incision and the pterygopalatine artery was ligated and the branches of the external carotid artery were cauterized. A 3-0 monofilament thread with a rounded tip was introduced into the external carotid artery in a retrograde fashion. […] Digital images of the brain slices were produced and the infarct volume was analyzed using a computerized image analysis system (NIH image, version 1.55). The percent of the hemisphere infarcted was measured using the Swanson equation to account for cerebral edema. […]

[3] = rat, in vivo, po
Procedure: The sEH inhibitor, adamantyl dodecanoic acid (AUDA) was administered orally to six-week-old male stroke prone spontaneously hypertensive rats (“SPSHR”).

| Compound | metabolic stability (Metabolic stability) | activity as an inhibitor of sEH (sEH) | systolic blood pressure [1] [mm Hg] | % hemisphere infarcted [2] [% hemisphere infarcted] | Plasma levels of AUDA at the end of the treatment period [3] [ng/mL] | urinary AUDA excretion rate [3] [ng/day] |
| --- | --- | --- | --- | --- | --- | --- |
| CCCCCCCCCCCCNC(=O)NC12CC3CC(CC(C3)C1)C2 [ADU, N-Adamantyl-N′-dodecyl urea] | metabolically stable | particularly high activity on sEH | – | – | – | – |
| adamantyl dodecanoic acid [AUDA] | – | – | 193±2 | 35.9±3.83 | 5.03 ± 0.32 | 111.6 ± 24.4 |
